Calls of active or inactive are those of the source. The calls are words filed in the database; no cut-off is given here.
Assays:
[1] = Inhibition of HIV1 REV protein binding to HIV1 [P33]RRE RNA by liquid scintillation assay; set-up: species or system Human immunodeficiency virus 1
[2] = Inhibition of R17 coat protein binding to [33P]labeled R17 operator RNA
[3] = Ratio of IC50 for R17 activity to IC50 for HIV1 Rev activity
[4] = tested on: Human immunodeficiency virus 1; experiment: Antiviral activity against HIV1 RF in CEM-SS cells assessed as cell protection against virus infection up to 260 uM by XTT assay; format: functional, organism-based

CC(=O)OC[C@H]1O[C@H](O[C@]2(COC(C)=O)O[C@H](COC(=O)/C=C/c3ccccc3)[C@@H](O)[C@@H]2OC(=O)/C=C/c2ccccc2)[C@H](OC(C)=O)[C@@H](O)[C@@H]1OC(C)=O [NIRURIDE]
IC50 [1]: 3.3 µM
IC50 [2]: > 130 µM
Ratio IC50 [3]: > 40
Activity [4]: inactive

Reference: ChEMBL document CHEMBL1158192, “Niruriside, a new HIV REV/RRE binding inhibitor from Phyllanthus niruri” (J Nat Prod, 1996)
